Broadly, the IC50 is the concentration that inhibits the measured activity by half.

This note sets out measurements from PMC5438648, “Identifying the structure-activity relationship of leelamine necessary for inhibiting intracellular cholesterol transport” (Oncotarget, 2017).

For data set [1], the system named is normal human fibroblast cell line FF2441. Description: MTS cell viability assay, normal fibroblasts. The data set is classed as cell-based. Particulars: 72 hours treatment, read-out: Melanoma cell killing efficacy (IC50 values) FF2441 (Normal Cells). On the procedure:
(§1) Dr. Craig Myers, Penn State College of Medicine, Hershey, PA provided normal human fibroblast cell line FF2441. Mutant V600E-BRAF human melanoma cell line 1205 Lu was provided by Dr. Herlyn; Wistar Institute, Philadelphia, PA and UACC 903 was provided by Dr. Mark Nelson; University of Arizona, Tucson, AZ. Cell lines were maintained in a 37°C humidified 5% CO2 atmosphere incubator and periodically monitored for phenotypic, genotypic characteristics, and tumorigenic potential to validate and confirm cell line identity.
(§2) In brief, 5 × 10^3 cells per well in 100 μL of media were seeded and grown in a 96-well plate for 48 to 72 hours and treated with either DMSO vehicle control or 0.62 to 100 μmol/L of compounds for 72 hours. IC50 values for each compound in μmol/L for respective cell lines were measured from three independent experiments using GraphPad Prism version 4.01 (GraphPad Software, La Jolla, CA). In addition, recovery and viability assessment was also measured with these compounds co-treated simultaneously with 10 nmol/L of bafilomycin A1 (BafA1) or 1 mMol/L β-cyclodextrin and the viability was measured using the MTS assay after 24 hours.
(Tetrazolium assays rely on reduction of a dye to a coloured formazan, in cell work by metabolically active cells.)

The next data set concerns melanoma cells. Nature of the data set: Autophagic flux: Western blot of p62 and LC3B. The data set is classed as cell-based, human. The note with it: Western blotting, 24 hours. From the text:
(§3) Cell lysates were harvested and processed as described in refs [14, 29, 31, 34]. […] Protein lysates were collected for Western blotting analysis. Blots were probed with antibodies according to each supplier's recommendations: antibodies to IGF-1R, total AKT, phosphor AKT (Ser473), total PRAS40, phospho-PRAS40 (Thr246), total ERK1/2, phospho-ERK1/2 (Thr202/Tyr 204), total CDK2, phospho-CDK2 (Thr160), p62, LC3B, total STAT, phospho-STAT3 (Tyr705), caspase 3 and cleaved PARP from Cell Signaling Technology (Danvers, MA); cyclin D1, α-enolase and secondary antibodies conjugated with horseradish peroxidase from Santa Cruz Biotechnology (Santa Cruz, CA). Immunoblots were developed using the enhanced chemiluminescence (ECL) detection system (Thermo Fisher Scientific, Rockford, IL).
(In general: In western blotting, separated proteins are transferred to a membrane and probed.)

Data set [2] relates to UACC 903 melanoma cells. Description: MTS cell viability assay, UACC 903 melanoma cells. The note with it: Homo sapiens, UACC-903, 72 h, 72 hours treatment, read-out: Melanoma cell killing efficacy (IC50 values) UACC 903 (Melanoma cells). It counts as cell-based, human. On the procedure: as §1, §2
Data set [3] in a line: Body weight and sub-chronic toxicity assessment (blood biomarkers) in tumor-bearing mice. The data set is classed as in vivo. Particulars: 80 mg/kg oral daily. The method, then: (§4) 1 × 10^6 UACC 903 cells in 0.2 mL of DMEM supplemented with 10% FBS were subcutaneously injected above both left and right rib cages of 4–6 week old female athymic nu/nu mice. Six to eight days later, mice were randomly sorted into vehicle control 10% PEG (Poly ethylene glycol) and experimental compound 4a or leelamine groups, followed by daily oral administration of 80 mg/kg body weight. Volume of developing tumors in mm^3 was measured on alternate days using calipers along with assessment of body weights.
At the end of tumorigenicity assessment, blood was collected from each euthanized animal in a serum separator tube with lithium heparin (BD Microtainer), following cardiac puncture and analyzed for levels of ALT (Alanine aminotransferase), AST (Aspartate aminotransferase), ALKP (Alkaline phosphatase), ALB (Albumin), GLB (Globulin), TPR (Total Protein), TBIL (Total bilirubin), BUN (Blood urea nitrogen), GLU (Glucose), CK (Creatine kinase), CAL (Calcium).

For data set [4], the system named is UACC 903 melanoma cells. Description: Tumorigenicity assessment, xenografted melanoma tumors. The note with it: 80 mg/kg oral daily; UACC 903 xenograft, athymic nu/nu mice. The data set is classed as in vivo. The method, then:
as §4

A further data set concerns 1205 Lu melanoma cells. Description: MTS cell viability assay, 1205 Lu melanoma cells. It counts as cell-based, human. Particulars: Homo sapiens, 1205Lu, 72 h, 72 hours treatment, read-out: Melanoma cell killing efficacy (IC50 values) 1205 Lu (Melanoma cells). On the procedure: as §1, §2
The test system of data set [5] is UACC 903 melanoma cell line. Description: Western blot of signaling pathways (PI3K/AKT, STAT3, MAPK; pERK1/2). It counts as cell-based, human. The note with it: active 3-5 μmol/L, inactive 30-50 μmol/L, 24 hours.
Source text: as §3

On to `CC(C)C1=CC2=CCC3[C@](C)(CN)CCC[C@]3(C)C2CC1` (stereo partly drawn) [4a, [(1R, 4aR)-1,4a-dimethyl-7-(propan-2-yl)-1,2,3,4,4a, 4b, 5,6,10,10a-decahydrophenanthren-1-yl] methanamine], for which the IC50 was determined as 8330 ± 400 nM in data set [1], 2100 nM with UACC 903 melanoma cells [2] and 2900 nM in the data set with 1205 Lu melanoma cells. For the same molecule, the “autophagic flux (p62 and LC3B proteins)” value in the data set with melanoma cells was “dose dependently induced accumulation of p62 and LC3B proteins”. Besides, the “body weights of mice” value in data set [3] (24 days of treatment) is “No significant differences”. The “blood parameters (ALT, AST, ALKP, ALB, GLB, TPR, TBIL, BUN, GLU, CK and CAL) indicative of organ-related sub-chronic toxicity” value in data set [3] (end of study) is recorded as “fell in the normal range”. The “reduction of tumor volume compared with vehicle control” value with UACC 903 melanoma cells [4] stood at 51%. Further, in data set [5], the “effect on PI3K/AKT, STAT3 and MAPK signaling pathways” value is “inhibited”.
